Laboratory results: publication PMC12564449, “Multifaceted Biological Activity of Selected Flavone C-Monoglucosides” (International Journal of Molecular Sciences, 2025)
Counter-ions that a name gives are not always drawn. Like-named read-outs stand apart in the source and are kept apart here. Marks after values point to notes of the source that are not given here.

Legend:
[1] = system: advanced glycation end-products (AGEs) formation in BSA/methylglyoxal (MGO) model system; assay: Inhibition of AGEs formation, BSA/MGO model system; type: biochemical, bovine; conditions: for IC50: read-out: IC50 against AGEs formation, BSA-MGO System; for anti-AGEs activity higher in relation to AG: relative to AG
Protocol: (§1) The inhibitory activity against AGEs formation was performed in the bovine serum albumin (BSA)/glucose and BSA/methylglyoxal (MGO) model systems as described recently by Zielińska et al.. Standards of OR, hOR, VT, iVT, and Q were initially dissolved in a small volume of DMSO and then in phosphate buffer (0.1 M, pH 7.4) to obtain 1 mM (DMSO/phosphate buffer; 1:5; v/v). The positive control aminoguanidine (1 mM AG) was used. The percentage (%) of inhibition was obtained from three repetitions (n = 3). The IC50, indicating the concentration of the compound at which formation of AGEs is inhibited by 50%, was determined through linear regression analysis.

[2] = system: advanced glycation end-products (AGEs) formation in BSA/glucose model system; assay: Inhibition of AGEs formation, BSA/glucose model system; type: biochemical, bovine; conditions: for IC50: read-out: IC50 against AGEs formation, BSA-Glucose System
Protocol: as §1

[3] = molecular target: T1, angiotensin-converting enzymes (ACE) from porcine kidneys (Sus scrofa, UniProt F1RRW5); assay: Angiotensin-I-converting enzyme inhibitory activity (fluorometric); type: biochemical
T1 construct: angiotensin-converting enzymes (ACE) from porcine kidneys (EC 3.4.15.1); purchased Sigma (Sigma Chemical Company, Saint Louis, MO, USA); host or cells: porcine kidney
T1 sequence (F1RRW5 34-1309): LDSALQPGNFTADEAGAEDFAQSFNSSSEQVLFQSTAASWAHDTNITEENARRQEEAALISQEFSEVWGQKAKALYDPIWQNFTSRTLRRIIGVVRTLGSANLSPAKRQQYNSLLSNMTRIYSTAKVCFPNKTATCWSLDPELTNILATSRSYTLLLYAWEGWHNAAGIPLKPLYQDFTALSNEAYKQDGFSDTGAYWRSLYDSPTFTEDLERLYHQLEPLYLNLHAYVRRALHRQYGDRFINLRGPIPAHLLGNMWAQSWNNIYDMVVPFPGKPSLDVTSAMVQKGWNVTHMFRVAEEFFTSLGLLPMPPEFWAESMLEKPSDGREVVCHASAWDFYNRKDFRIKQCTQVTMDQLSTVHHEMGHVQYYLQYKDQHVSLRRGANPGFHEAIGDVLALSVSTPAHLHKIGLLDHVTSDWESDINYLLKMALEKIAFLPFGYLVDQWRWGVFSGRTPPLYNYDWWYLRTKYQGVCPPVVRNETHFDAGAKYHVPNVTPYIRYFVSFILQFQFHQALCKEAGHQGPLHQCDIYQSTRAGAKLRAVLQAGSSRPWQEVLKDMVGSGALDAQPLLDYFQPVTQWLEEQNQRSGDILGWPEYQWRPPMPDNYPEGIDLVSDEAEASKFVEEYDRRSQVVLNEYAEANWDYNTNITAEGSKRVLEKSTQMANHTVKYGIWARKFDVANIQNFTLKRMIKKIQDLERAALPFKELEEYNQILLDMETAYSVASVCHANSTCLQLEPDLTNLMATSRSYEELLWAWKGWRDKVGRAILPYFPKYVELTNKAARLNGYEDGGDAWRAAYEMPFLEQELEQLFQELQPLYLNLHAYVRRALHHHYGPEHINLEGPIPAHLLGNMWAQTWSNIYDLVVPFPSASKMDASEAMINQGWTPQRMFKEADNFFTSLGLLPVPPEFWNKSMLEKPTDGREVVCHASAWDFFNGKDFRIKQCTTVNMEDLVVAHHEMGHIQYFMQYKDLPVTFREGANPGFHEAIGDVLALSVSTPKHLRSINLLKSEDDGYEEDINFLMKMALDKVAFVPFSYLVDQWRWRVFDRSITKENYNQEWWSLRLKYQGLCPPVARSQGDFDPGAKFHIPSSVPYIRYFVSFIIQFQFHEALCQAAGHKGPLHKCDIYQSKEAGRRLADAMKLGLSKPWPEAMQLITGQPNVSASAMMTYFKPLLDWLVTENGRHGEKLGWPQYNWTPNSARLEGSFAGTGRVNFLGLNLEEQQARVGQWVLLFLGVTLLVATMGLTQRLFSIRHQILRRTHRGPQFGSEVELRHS
Protocol: Angiotensin converting enzyme (ACE) inhibitory activity was performed according to the method of Sentandreu and Toldra. The details of the procedure were described recently by Zielińska et al.. Standards of OR (luteolin-8-C-glucoside), hOR (luteolin-6-C-glucoside), VT (apigenin-8-C-glucoside), iVT (apigenin-6-C-glucoside), and Q (quercetin) were dissolved in 80% methanol. Each standard was diluted to various concentrations using deionized water. The multiscan microplate fluorometer (Tecan Infinite M1000 PRO, TK Biotech, Warsaw, Poland) was used, and the IC50 value indicating the sample concentration at which 50% inhibition of ACE activity was determined by using linear regression analysis of logarithmic plots. At least 3 replicates for each standard solution were conducted.

[4] = Differential pulse voltammetry: anodic peak potentials and antioxidant activity; type: physicochemical; conditions: DPV; for Anodic Peak Potential Epa (mV) Epa1: glassy carbon electrode; for Antioxidant Activity (mM Trolox): area under anodic peaks, Trolox regression; for antioxidant activity lower in relation to the antioxidant activity of Q: relative to quercetin
Protocol: Electrochemical measurements were performed at room temperature (25 ± 2 °C) in a small-volume electrochemical cell using a potentiostat type SP-240 (BioLogic Science Instruments, Seyssinet-Pariset, France) controlled by EC-Lab V11.36 software. Differential pulse voltammograms were obtained with a pulse amplitude of 100 mV, a potential step of 5 mV, and a modulation time of 0.2 s. Four scans were registered for each sample, and the reported data correspond to the average of at least three replicates. The working electrode was a glassy carbon electrode, GCE (3 mm diameter, BASi M-2012, and the auxiliary and reference electrodes were platinum wire (BASi MW-1033) and Ag/AgCl (3 M KCl, BASi-MW-2052). All potentials are quoted against the used reference electrode. Before each scan, the surface of the glassy carbon electrode was polished on a polishing cloth with 0.05 μm alumina paste and ultrasonically rinsed in deionized water. After polishing, the electrode was washed with ultrapure water and dried with absorbent paper. DPV measurements were carried out in a standard solution of flavone C-monoglucosides and quercetin at a final concentration of 250 μM. Before measurements, the standard solutions were diluted in 0.2 M acetate-acetic buffer (in 80% methanol) at pH 5.0 (v/v: 1:1). Buffer solution also served as a supporting electrolyte. For the test purpose, from registered DPV voltammograms, the anodic oxidation potentials (Epa) in mV and the integrated area under anodic peaks in μA were determined.

[5] = molecular target: T2, acetylcholinesterase (AChE) (Homo sapiens, UniProt P22303); assay: Acetylcholinesterase inhibitory activity; type: biochemical; conditions: for AChE inhibitory activity, times lower than that of galanthamine: relative to galanthamine
T2 construct: purchased Sigma Chemical Co. (Poznań, Poland)
T2 sequence (P22303 32-614, species assumed): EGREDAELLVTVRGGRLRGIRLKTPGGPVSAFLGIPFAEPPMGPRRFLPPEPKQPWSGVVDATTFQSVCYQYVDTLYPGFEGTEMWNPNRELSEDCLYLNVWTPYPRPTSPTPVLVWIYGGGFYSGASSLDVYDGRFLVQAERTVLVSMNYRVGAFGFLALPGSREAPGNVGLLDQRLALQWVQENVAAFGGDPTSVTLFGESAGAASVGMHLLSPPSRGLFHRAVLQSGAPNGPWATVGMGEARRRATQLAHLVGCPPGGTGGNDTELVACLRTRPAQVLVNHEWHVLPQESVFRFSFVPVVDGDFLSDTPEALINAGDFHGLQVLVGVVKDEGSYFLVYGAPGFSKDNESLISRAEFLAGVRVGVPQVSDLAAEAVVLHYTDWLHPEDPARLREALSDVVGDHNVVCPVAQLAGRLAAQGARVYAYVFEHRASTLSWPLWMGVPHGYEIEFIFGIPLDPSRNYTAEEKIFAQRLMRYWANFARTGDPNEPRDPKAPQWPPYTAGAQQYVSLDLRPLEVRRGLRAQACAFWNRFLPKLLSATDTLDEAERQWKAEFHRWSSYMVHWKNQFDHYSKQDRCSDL
Protocol: The AChE inhibitory activity was evaluated following the methodology adapted from Eldeen et al., and details of the procedure were provided recently by Zielińska et al.. […] All measurements were conducted using a microplate reader (Tecan Infinite M1000 PRO, TK Biotech, Warsaw, Poland). […] At least 3 replicates for each standard solution were carried out.

[6] = vs. NHE; cited from earlier work
[7] = 0.25 mM standard solutions, acetate-acetic buffer pH 5.0 in 80% methanol, vs. Ag/AgCl
[8] = ACE from porcine kidneys, linear regression, read-out: IC50 for ACE inhibition

SMILES	IC50 [1] [µM]	anti-AGEs activity higher in relation to AG [1] [%]	IC50 [2] [µM]	Anodic Peak Potential Epa (mV) Epa1 [4, 7]	Anodic Peak Potential Epa (mV) Epa2 [4, 7]	Antioxidant Activity (mM Trolox) [4]	IC50 [3, 8] [µM]	IC50 [5] [µM]	further results
O=c1cc(-c2ccc(O)c(O)c2)oc2c([C@@H]3O[C@H](CO)[C@@H](O)[C@H](O)[C@H]3O)c(O)cc(O)c12 [Orientin (OR), 3′,4′,5,7-tetrahydroxyflavone-8-glucoside]	326 ± 19	39	73 ± 5	345 ± 6 ^b mV	1020 ± 9 ^a mV	3.00 ± 0.14 ^b mM Trolox			IC50 [3]: 122 ± 2.66 µM; ACE inhibitory activity lower as compared to hOR ([3]; relative to hOR): 6.9%; Anodic Peak Potential Epa (mV) Epa1 ([4]; 0.25 mM standard solutions, acetate-acetic buffer pH 5.0 in 80% methanol, vs. Ag/AgCl, listed as OR): 345 mV; antioxidant activity lower in relation to the antioxidant activity of Q [4]: 21%; IC50 ([5]; linear regression, read-out: IC50 for AChE inhibition): 0.868 ± 0.088 µM; AChE inhibitory activity, times lower than that of galanthamine [5]: 14–20 times
O=c1cc(-c2ccc(O)cc2)oc2cc(O)c([C@@H]3O[C@H](CO)[C@@H](O)[C@H](O)[C@H]3O)c(O)c12 [Isovitexin (iVT), 4′,5,7-trihydroxyflavone-6-glucoside]	341 ± 20		214 ± 11	926 ± 8 ^a mV		1.06 ± 0.07 ^c mM Trolox	161 ± 3.27	1.08 ± 0.011	Anodic Peak Potential Epa (mV) Epa1 ([4]; 0.25 mM standard solutions, acetate-acetic buffer pH 5.0 in 80% methanol, vs. Ag/AgCl, listed as iVT): 926 mV
O=c1c(O)c(-c2ccc(O)c(O)c2)oc2cc(O)cc(O)c12 [Quercetin (Q), 3,3′,4′,5,7-pentahydroxyflavone, reference compound]	466 ± 17	12	243 ± 12	255 ± 7 ^c mV	510 ± 8 ^c mV	3.81 ± 0.19 ^a mM Trolox		1.37 ± 0.077	Anodic Peak Potential Epa (mV) Epa1 ([4]; 0.25 mM standard solutions, acetate-acetic buffer pH 5.0 in 80% methanol, vs. Ag/AgCl, listed as Q): 255 mV; Anodic Peak Potential Epa (mV) Epa3 [4, 7]: 1060 ± 10 mV
N=C(N)NN [Aminoquanidine (AG), aminoguanidine hydrochloride, reference compound]	531 ± 28		432 ± 36						
N[C@@H](CCC(=O)N[C@@H](CS)C(=O)NCC(=O)O)C(=O)O [Glutathione (GSH), Glutathione]									standard redox potential [6]: around −0.23 V
O=c1cc(-c2ccc(O)cc2)oc2c([C@@H]3O[C@H](CO)[C@@H](O)[C@H](O)[C@H]3O)c(O)cc(O)c12 [Vitexin (VT), 4′,5,7-trihydroxyflavone-8-glucoside]	437 ± 17	18	255 ± 16	925 ± 8 ^a mV		0.93 ± 0.07 ^c mM Trolox	135 ± 2.45	1.28 ± 0.089	ACE inhibitory activity higher in comparison to iVT ([3]; relative to iVT): 19.6%; Anodic Peak Potential Epa (mV) Epa1 ([4]; 0.25 mM standard solutions, acetate-acetic buffer pH 5.0 in 80% methanol, vs. Ag/AgCl, listed as VT): 925 mV
O=c1cc(-c2ccc(O)c(O)c2)oc2cc(O)c([C@@H]3O[C@H](CO)[C@@H](O)[C@H](O)[C@H]3O)c(O)c12 [Homoorientin (hOR), 3′,4′,5,7-tetrahydroxyflavone-6-glucoside]	391 ± 22	26	14 ± 8	336 ± 5 ^b mV	960 ± 9 ^b mV	3.24 ± 0.15 ^b mM Trolox	114 ± 1.23	0.581 ± 0.096	anti-AGEs activity times higher in relation to Q ([2]; relative to Q): ~17 times; anti-AGEs activity times higher in relation to VT ([2]; relative to VT): about 18 times; anti-AGEs activity times higher in relation to iVT ([2]; relative to iVT): ~15 times; Anodic Peak Potential Epa (mV) Epa1 ([4]; 0.25 mM standard solutions, acetate-acetic buffer pH 5.0 in 80% methanol, vs. Ag/AgCl, listed as hOR): 336 mV; antioxidant activity lower in relation to the antioxidant activity of Q [4]: 15%; AChE inhibitory activity, times lower than that of galanthamine [5]: 14–20 times
